Experimental data published in the OPERA property sets (Mansouri et al. 2018).

Details: for log10 BCF / log10 biotransformation half-life (days): fish

SMILES | boiling point [°C] | melting point [°C] | other results
CC(C#N)CCC#N (centres undefined) | 263 | -45 | log10 vapour pressure (mmHg): -2.29
C[C@]12CC[C@H]3[C@@H](CCC4=CC(=O)C=C[C@@]43C)[C@@H]1CC[C@H]2O |  | 165 | 
CCCOc1ccc([N+](=O)[O-])cc1N |  | 49 | 
COC(=O)CC(O)(CC(=O)OC)C(=O)OC | 285 | 79.3 | 
CC(C)c1ccc(Br)cc1 | 219 | -22.5 | 
OCCc1ccc(Cl)cc1 | 259 |  | 
CCC(CC)c1ccccn1 | 195 |  | 
COC(=O)[C@H](Cc1ccccc1)NC(=O)[C@@H](N)CC(=O)O |  | 246 | 
BrCCCCBr | 197 | -16.5 | log10 vapour pressure (mmHg): -0.211
CNC(=O)Oc1ccccc1OC(CCl)OC (centres undefined) |  | 80 | 
CC(O)C(C)Cl (centres undefined) | 139 |  | 
OCCC1CCNCC1 | 228 |  | 
CCCCCCCCCCCCCCCCCCCC(=O)O | 328 | 75.4 | log10 vapour pressure (mmHg): -8.74
C=CC(=O)OCC | 99.4 | -71.2 | log10 vapour pressure (mmHg): 1.59; ready biodegradability: readily biodegradable
C[C@]12CCC(=O)C[C@@H]1CC[C@@H]1[C@@H]2CC[C@]2(C)[C@@H](O)CC[C@@H]12 |  | 181 | 
CC(C)(N=C(O)C(Br)C(C)(C)C)c1ccccc1 (centres undefined) |  | 180 | 
Cc1ccnc(N)c1 |  | 100 | 
O=[N+]([O-])c1ccc(O/N=C/c2cc(Br)c(O)c(Br)c2)c([N+](=O)[O-])c1 |  | 196 | 
COP(=O)(OC)Oc1ccc([N+](=O)[O-])c(C)c1 |  |  | log10 BCF: 0.44; log10 biotransformation half-life (days): 0.01
C=C(C)C(=O)OCC(F)(F)C(F)F | 124 |  | 
Cc1ccc(N=Nc2c(O)ccc3ccccc23)c([N+](=O)[O-])c1 |  |  | ready biodegradability: not readily biodegradable
Cc1cc(C)c(C)c(O)c1C | 247 | 118 | 
Cc1cc(NS(=O)(=O)c2ccc(N)cc2)sn1 |  | 192 | 
CNC(=O)N(C)c1nnc(C(C)(C)C)s1 |  |  | log10 Henry constant (atm·m³/mol): -9.92; log10 Koc (L/kg): 1.83; log10 vapour pressure (mmHg): -5.7

SMILES | boiling point [°C] | melting point [°C] | other results
CCOC(=O)c1cccc(C(=O)OCC)c1 | 302 | 11.5 | 
Cc1c(N(C)C)c(=O)n(-c2ccccc2)n1C |  | 134 | 
CCN=C=O | 60 |  | 
O=[N+]([O-])c1ccccc1I | 290 | 54 | 
CCN(CC)CC#CCOC(=O)C(O)(c1ccccc1)C1CCCCC1.Cl (centres undefined) |  | 130 | 
C=CCCC=O | 99 |  | 
Cc1ccc([N+](=O)[O-])c2ccccc12 |  | 71.5 | 
CC[C@@]12CCCN3CC[C@]4(c5cccc(OC)c5N(C(C)=O)[C@@H]4CC1)[C@H]32 |  | 208 | 
Nc1cc(Cl)c(Cl)c(Cl)c1 |  | 99 | log10 BCF: 2.36; log10 biotransformation half-life (days): 0.28
C#C[C@]1(O)CC[C@H]2[C@@H]3CCC4=CC(=O)CCC4=C3C=C[C@@]21C |  | 169 | 
CCCS | 67.8 | -113 | log10 Henry constant (atm·m³/mol): -2.39; log10 vapour pressure (mmHg): 2.19
CCC(C)(CC(=O)O)CC(=O)O | 261 | 87 | 
N#CCN |  | 101 | 
Cn1nnc2ccccc21 | 270 | 64.5 | 
Cc1cc(O)c(C(C)(C)C)cc1Sc1cc(C(C)(C)C)c(O)cc1C |  | 162 | ready biodegradability: not readily biodegradable
CCCCCC[Si](Cl)(Cl)Cl | 190 |  | 
CC(=O)CCC(=O)O | 246 | 33 | log10 vapour pressure (mmHg): -2.95
CC(Oc1ccc2ccccc2c1)C(O)=Nc1ccccc1 (centres undefined) |  | 128 | log10 vapour pressure (mmHg): -10.7
N#Cc1cc([N+](=O)[O-])ccc1N |  |  | ready biodegradability: not readily biodegradable
CC[C@H](Br)C(=O)O |  | -4 | 
Clc1ccc2c(c1)Oc1cc(Cl)c(Cl)c(Cl)c1O2 |  | 172 | log10 Henry constant (atm·m³/mol): -5.12; log10 vapour pressure (mmHg): -8.12
CCSCC(=O)O |  | -8.5 | 
CCCCC1CO1 (centres undefined) |  | 94 | 
C[C@H]1C[C@@H]2[C@H]([C@@H](O)C[C@@]3(C)[C@H]2CC[C@]3(O)C(=O)CO)[C@@]2(C)C=CC(=O)C=C12 |  | 232 | 

SMILES | boiling point [°C] | melting point [°C] | other results
CN(Cc1cc(Br)cc(Br)c1N)C1CCCCC1 |  | 238 | 
Nc1ccc([N+](=O)[O-])c2c1C(=O)c1c(Cl)ccc(Cl)c1C2=O |  | 307 | log10 vapour pressure (mmHg): -12.4
CCOC(=O)CC(O)(CC(=O)OCC)C(=O)OCC | 294 |  | 
C=CCCCCCCC=C | 167 |  | 
CC1=CCC2C(=O)OC(=O)C2C1 (centres undefined) |  |  | ready biodegradability: not readily biodegradable
CCCCCCCCCCCCCCCC(=O)OC/C=C(C)/C=C/C=C(C)/C=C/C1=C(C)CCCC1(C)C |  | 28.5 | 
O=C(Cl)c1ccccc1F | 206 | 4 | 
Cc1ccn(-c2ccccc2)n1 | 255 | 37 | 
CCCCCCCCCCCC(=O)Cl |  | -17 | 
CC(=O)c1ccccc1 | 202 | 20 | log10 Henry constant (atm·m³/mol): -4.98; log10 Koc (L/kg): 1.8; log10 vapour pressure (mmHg): -0.401; ready biodegradability: readily biodegradable
C/C(=C/c1ccccc1)CC(N)=O |  | 133 | 
CCCCCCCCCCCCCCCCCCOC(=O)CCSCCC(=O)OCCCCCCCCCCCCCCCCCC |  | 66 | ready biodegradability: readily biodegradable
Cc1ccc(N=C=Nc2ccc(C)cc2)cc1 |  | 58.5 | 
CNO |  | 87.5 | log10 vapour pressure (mmHg): 0.222
O=C1CCCCCCC1 | 196 | 29 | log10 vapour pressure (mmHg): -0.389
COc1ccc(C=O)c2ccccc12 |  | 34.8 | 
c1ccc(CCc2ccccn2)cc1 | 289 | -3 | 
C=C[Si](OC(C)C)(OC(C)C)OC(C)C | 180 |  | 
CCC1CO1 (centres undefined) | 63.3 |  | log10 vapour pressure (mmHg): 2.26; ready biodegradability: readily biodegradable
CC(=O)[C@H]1CC[C@H]2[C@@H]3CC[C@H]4C[C@H](O)CC[C@]4(C)[C@H]3CC[C@]12C |  | 174 | 
FC(F)(F)C(F)(F)C(F)(F)C(F)(F)C(F)(F)C(F)(F)C(F)(F)Br | 118 |  | 
CCCCCCCCCCCCCCN | 291 | 83.1 | log10 vapour pressure (mmHg): -3.01
CCCCCCCCCCCCCCCC(OC)OC |  | 10 | 
CNc1ccccc1[N+](=O)[O-] |  | 38 | 

SMILES | boiling point [°C] | melting point [°C] | other results
CC(C)OC(=O)[C@H](O)[C@@H](O)C(=O)OC(C)C | 275 |  | 
CCOc1ccc2c3c1O[C@H]1[C@@H](O)C=C[C@H]4[C@@H](C2)N(C)CC[C@@]341 |  | 200 | 
C[Si](C)(C)CCCCl | 151 |  | 
CC(=O)/C(C)=N/O | 186 | 76.8 | 
CCCCCC(=O)CCC | 188 |  | 
C[C@@H]1O[C@@H](O[C@H]2CC[C@]3(C=O)[C@H]4CC[C@]5(C)[C@@H](c6ccc(=O)oc6)CC[C@]5(O)[C@@H]4CC[C@]3(O)C2)[C@H](O)[C@H](O)[C@H]1O[C@@H]1O[C@H](CO)[C@@H](O)[C@H](O)[C@H]1O |  | 284 | 
CCCCCCCCCCCCCCCCOC(C)=O |  | -18.5 | 
BrC(Br)c1ccccc1OCC1CO1 (centres undefined) |  |  | ready biodegradability: not readily biodegradable
NCCO | 171 | 10.5 | log10 vapour pressure (mmHg): -0.394; ready biodegradability: readily biodegradable
Nc1ncnc2c1ncn2[C@@H]1O[C@H](CO)[C@@H](OP(=O)(O)O)[C@H]1O |  | 197 | 
O=C=NS(=O)(=O)Cl | 107 | -44 | 
ClC=C(Cl)C(Cl)Cl | 162 |  | 
c1ccc2c(c1)cc1ccc3cccc4ccc2c1c34 | 495 | 176 | log10 Henry constant (atm·m³/mol): -6.34; log10 Koc (L/kg): 5.95; log10 biodegradation half-life (days): 2.35; log10 vapour pressure (mmHg): -8.26; log10 biotransformation half-life (days): 0.05
CCN(CC)CCN(CC)CC | 192 |  | 
Cc1ccc(S)cc1 | 195 | 43 | log10 vapour pressure (mmHg): -0.191
Fc1ccncc1 | 109 |  | 
O=C(OCc1ccccc1)c1ccccc1 | 324 | 21 | log10 vapour pressure (mmHg): -3.65; ready biodegradability: readily biodegradable
Cc1cc(C)c(O)cc1C | 232 | 72 | log10 vapour pressure (mmHg): -2.17
N#CC1CCC1 | 150 |  | 
CCOC(=O)NCCOc1ccc(Oc2ccccc2)cc1 |  | 53.2 | log10 Koc (L/kg): 3; log10 vapour pressure (mmHg): -8.2
CN1CCC(OC(c2ccccc2)c2ccccc2)CC1.Cl |  | 204 | 
CCCC(O)CCC | 156 | -41.2 | log10 vapour pressure (mmHg): -0.0048
Nc1ncnc(Nc2ccccc2)n1 |  | 236 | 
CC/C=C\C/C=C\C/C=C\CCCCCCCC(=O)O |  | -16.5 | log10 vapour pressure (mmHg): -6.27; ready biodegradability: readily biodegradable

SMILES | boiling point [°C] | melting point [°C] | other results
CC(CC1CCCCC1)C1CCCCC1 (centres undefined) | 284 | -22 | 
CCC1=CCCCC1 | 137 | -110 | 
CCCCOc1ccc(C(=O)O)cc1 |  | 148 | 
CCNC(C)C | 69.6 |  | 
O=C(O)c1ccccc1C(=O)Nc1cccc2ccccc12 |  | 185 | 
O=C(O)c1c(F)cc(F)cc1F |  | 143 | 
CC1CC(C)NC(C)(C)C1 (centres undefined) | 156 |  | 
NCc1cccnc1 | 226 | -21.1 | 
CC(C)c1ccc(CO)cc1 | 249 | 28 | ready biodegradability: readily biodegradable
O=S(=O)(O)c1ccc2ccc(S(=O)(=O)O)cc2c1 |  | 199 | 
N#Cc1ccc(F)cc1 | 189 | 34.8 | 
CCOC(=O)C#CC(=O)OCC |  | 1.5 | 
O=[N+]([O-])c1cc(N(CCO)CCO)ccc1NCCO |  | 95.5 | 
FC(F)(F)C(F)(F)C(F)(F)C(F)(F)C(F)(F)C(F)(F)C(F)(F)C(F)(F)C(F)(F)F | 123 | -16 | 
Brc1cccs1 | 150 |  | log10 vapour pressure (mmHg): 1.37
CC1(C)C(=O)N(Cl)C(=O)N1Cl |  | 132 | 
C=CC[C@]1(O)CC[C@H]2[C@@H]3CCC4=CC(=O)CCC4=C3C=C[C@@]21C |  | 120 | 
CCOC(C)CO (centres undefined) | 140 |  | 
CCCCCCCC(=O)OC(=O)CCCCCCC | 282 | -1 | 
CCOC(=O)C1(C(=O)OCC)CCC1 | 224 |  | 
CC(=O)Oc1cc(C)ccc1C | 237 |  | 
CCOC(=O)CNc1nc(Cl)nc(NC(C)C)n1 |  | 110 | 
C=C(C)C(=O)OC(C)C | 125 |  | 
